Several values for one entry are separate records, joined by “and”; a condition that tells them apart may be missing. Identical values can stand only once.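 Exposure lasted 48 hours, with cells grown in 96-well plates and compounds tested at five concentrations. Here, GI50 denotes the concentration required for 50% inhibition of growth. TGI marks complete inhibition of growth.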
Columns and labels:
Assay in all cases: NCI anticancer screen, dose series, 48 h
[1] = tested on: SF-539 CNS
[2] = tested on: SNB-19 CNS
[3] = tested on: COLO 205 colon
[4] = tested on: NCI-H522 lung
[5] = tested on: UO-31 renal
[6] = tested on: HOP-92 NSCLC
[7] = tested on: SF-295 CNS
[8] = tested on: NCI-H23 lung
[9] = tested on: KM12 colon
[10] = tested on: HT29 colon

| SMILES | GI50 [1] | TGI [1] | GI50 [2] | TGI [2] | GI50 [3] | TGI [3] | GI50 [4] | TGI [4] | GI50 [5] | TGI [5] | GI50 [6] | TGI [6] | GI50 [7] | TGI [7] | GI50 [8] | TGI [8] | GI50 [9] | TGI [9] | GI50 [10] | TGI [10] |
| --- | --- | --- | --- | --- | --- | --- | --- | --- | --- | --- | --- | --- | --- | --- | --- | --- | --- | --- | --- | --- |
| Cn1ncc(Cl)c1-c1cc(C(=O)N[C@H](CN)Cc2cccc(F)c2)sc1Cl | 313 nM and 325 nM | 3220 nM and 4640 nM | 340 nM and 783 nM | 1870 nM and 13400 nM | 546 nM and 1250 nM | 1840 nM and 5210 nM | 1410 nM and 6340 nM | > 5800 nM and 20300 nM | 844 nM and 1510 nM | > 7400 nM and 12500 nM | 338 nM and 519 nM | 2770 nM and 4210 nM | 255 nM and 486 nM | 2950 nM and 7010 nM | 2450 nM and 8120 nM | > 8230 nM and 22000 nM | 467 nM and 835 nM | 3510 nM and 8310 nM | 733 nM and 2030 nM | > 6180 nM and 13900 nM |
| CCOC(=O)C12CCCC1(O)N(NC(=O)OC)C(C)=C2C(=O)OC (stereo not given) | – | > 100000 nM | – | > 100000 nM | – | > 100000 nM | – | > 100000 nM | – | > 100000 nM | – | > 100000 nM | – | > 10000 nM | – | > 100000 nM | – | > 10000 nM | – | > 100000 nM |
| COC(=O)/C=C1/SC(=Nc2cccc(Cl)c2)N(CCc2c[nH]c3ccc(O)cc23)C1=O | 1630 nM | 3240 nM | 2570 nM | 6880 nM | 2050 nM | 4040 nM | 1630 nM | 3400 nM | 1430 nM | 2880 nM | 2000 nM | 4670 nM | 1850 nM | 4150 nM | 1860 nM | 4340 nM | 1530 nM | 3290 nM | 1870 nM | 3570 nM |
| O=C(O)c1cccc(S(=O)(=O)NCCO)c1 | – | > 100000 nM | – | > 100000 nM | – | > 100000 nM | – | > 100000 nM | – | > 100000 nM | – | > 100000 nM | – | > 100000 nM | – | > 100000 nM | – | > 100000 nM | – | > 100000 nM |
| COc1ccc(C(=O)C2CCC(C(=O)O)C2)cc1 (stereo not given) | – | > 100000 nM | – | > 100000 nM | – | > 100000 nM | – | > 100000 nM | – | > 100000 nM | – | > 100000 nM | – | > 100000 nM | – | > 100000 nM | – | > 100000 nM | – | > 100000 nM |
| COc1ccc(Nc2nc(NCCNc3ccnc4cc(Cl)ccc34)nc(N3CCOCC3)n2)cc1 | 2180 nM | 7540 nM | 10600 nM | 23600 nM | 1530 nM | 3330 nM | 3850 nM | 11500 nM | 1330 nM | 14200 nM | 1160 nM | 13000 nM | 2050 nM | 3920 nM | 13700 nM | 29700 nM | 5180 nM | 18000 nM | 1070 nM | 3750 nM |
| COc1cc(-c2nn(-c3cccc(NC(=O)Nc4ccc(Cl)c(C(F)(F)F)c4)c3)cc2-c2ccncc2)ccc1Cl | 1660 nM | 6340 nM | 1240 nM | 9240 nM | 711 nM | 1540 nM | 1140 nM | 6060 nM | 865 nM | 4100 nM | 499 nM | 1480 nM | 840 nM | 2540 nM | 1130 nM | 8020 nM | 1060 nM | 3910 nM | 1190 nM | 4450 nM |
| CC1=C([Te]c2ccccc2)C(=O)c2ccccc2C1=O | 146 nM | 1030 nM | 551 nM | 2560 nM | 457 nM | 1450 nM | 909 nM | 4240 nM | 246 nM | 1120 nM | 315 nM | 1390 nM | 240 nM | 697 nM | 298 nM | 1050 nM | 337 nM | 1210 nM | 344 nM | 1360 nM |
